Assay results as given in article PMC12453120, “TrkA of Streptococcus mitis CCUG31611 binds cyclic di-adenosine monophosphate and is required for growth in low potassium conditions” (Microbiology, 2025).
Values belong to the molecule of their own block, whether it stands above or below them.

Legend:
TrkA = molecular target: T1, TrkA (Streptococcus mitis, UniProt A0ACG7RC27); assay: nanoDSF, isothermal FoldAffinity fit; assay type: binding; conditions: 500 nM TrkA, 150 mM KCl, 20 mM HEPES, 10% glycerol, pH 7.5
T1 construct: gene SM12261_0089; full-length ORF (1-221 aa), N-terminal 6xHis tag kept, pET30b, E. coli BL21(DE3); Ni-NTA + SEC; two bands on SDS-PAGE, both TrkA by MS; MS peptide positions up to 227 include the tag
T1 sequence (A0ACG7RC27 1-221): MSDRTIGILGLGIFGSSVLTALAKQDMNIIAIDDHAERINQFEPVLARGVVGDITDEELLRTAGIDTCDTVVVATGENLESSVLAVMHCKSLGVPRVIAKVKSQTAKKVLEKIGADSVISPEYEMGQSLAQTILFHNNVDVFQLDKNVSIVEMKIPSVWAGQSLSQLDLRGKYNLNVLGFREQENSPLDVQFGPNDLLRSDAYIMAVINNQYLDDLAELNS
Excerpt: nanoDSF, isothermal FoldAffinity fit on TrkA

[1] = molecular target: TrkA of Streptococcus mitis CCUG31611 (SM12261_0089), recombinant with N-terminal 6x His-tag (Streptococcus mitis CCUG31611); assay: SEC; Sepharose 6 Increase 10-300 GL column, AKTA pure; 150 mM KCl, 20 mM HEPES, pH 7.5; flow 0.2 ml/min; MW estimated from a standard curve of gel filtration markers (12,000-200,000 Da), logMW vs VE/V0
[2] = Tiso 52 °C, unreliable (above the highest ligand concentration, 500 µM)

Molecule: Nc1ncnc2c1ncn2[C@@H]1O[C@H](COP(=O)(O)O)[C@@H](O)[C@H]1O [AMP]
Kd,app (μM)‡ (TrkA; Tiso 54 °C, unreliable (above the highest ligand concentration, 500 µM)): 2,050.000 ± 494.975 µM

Molecule: Nc1ncnc2c1ncn2[C@@H]1O[C@H](COP(=O)(O)OP(=O)(O)OP(=O)(O)O)[C@@H](O)[C@H]1O [ATP]
Kd,app (μM)‡ (TrkA; [2]): 2,610.000 ± 2390.021 µM

Molecule: Nc1nc2c(ncn2[C@@H]2O[C@@H]3COP(=O)(O)O[C@H]4[C@@H](O)[C@H](n5cnc6c(=O)[nH]c(N)nc65)O[C@@H]4COP(=O)(O)O[C@H]3[C@H]2O)c(=O)[nH]1 [c-di-GMP]
Kd,app (μM)‡ (TrkA; Tiso 54 °C, unreliable (far above the highest ligand concentration, 500 µM)): 100,000.000 ± 0.000 µM

stoichiometry N [1]: 8
Molecule: TrkA of Streptococcus mitis CCUG31611 (SM12261_0089), recombinant with N-terminal 6x His-tag (natural protein)

Molecule: Nc1ncnc2c1ncn2[C@@H]1O[C@H](COP(=O)(O)O[C@H]2[C@@H](O)[C@H](n3cnc4c(N)ncnc43)O[C@@H]2COP(=O)(O)O)[C@@H](O)[C@H]1O [pApA]
Kd,app (μM)‡ (TrkA; [2]): 1,650.000 ± 494.975 µM
